We go through 19 molecules from patent US20110021565A1, “PIPERIDINE DERIVATIVES AS NK3 ANTAGONISTS” (priority 2007, published 2011).

pKi: −log10 of the molar value. Structures can show the parent of a compound that is named as a salt. Where two headings read alike, the source gives them in different places.

For the assay, the target named is T1, recombinant human NK3 receptor (Homo sapiens, UniProt P29371).
T1 construct: expressed in transfected cells; host or cells: HEK293 cells, transient expression; membrane preparation
T1 sequence (P29371 1-465): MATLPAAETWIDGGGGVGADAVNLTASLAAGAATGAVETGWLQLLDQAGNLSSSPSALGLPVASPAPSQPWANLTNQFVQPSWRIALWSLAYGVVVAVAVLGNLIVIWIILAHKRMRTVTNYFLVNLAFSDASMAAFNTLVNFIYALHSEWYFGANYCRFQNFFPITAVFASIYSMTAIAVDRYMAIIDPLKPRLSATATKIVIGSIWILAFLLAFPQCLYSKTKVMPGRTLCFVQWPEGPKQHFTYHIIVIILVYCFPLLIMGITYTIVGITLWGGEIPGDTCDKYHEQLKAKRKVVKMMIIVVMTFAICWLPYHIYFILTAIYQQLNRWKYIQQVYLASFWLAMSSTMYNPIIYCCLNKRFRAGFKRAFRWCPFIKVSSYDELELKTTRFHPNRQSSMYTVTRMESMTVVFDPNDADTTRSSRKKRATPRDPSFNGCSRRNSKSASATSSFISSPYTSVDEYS
In words: [3H]SR142801 competition binding assay. The procedure:
[^3H]SR142801 Competition Binding Assay
hNK3 receptor binding experiment were performed using [^3H]SR142801 (Catalog No. TRK1035, specific activity: 74.0 Ci/mmol, Amersham, GE Healthcare UK limited, Buckinghamshire, UK) and membrane isolated from HEK293 cells transiently expressing recombinant human NK3 receptor. After thawing, the membrane homogenates were centrifuged at 48,000×g for 10 min at 4° C., the pellets were resuspended in the 50 mM Tris-HCl, 4 mM MnCl2, 1 μM phosphoramidon, 0.1% BSA binding buffer at pH 7.4 to a final assay concentration of 5 μg protein/well. For inhibition experiments, membranes were incubated with [^3H]SR142801 at a concentration equal to KD value of radioligand and 10 concentrations of the inhibitory compound (0.0003-10 μM) (in a total reaction volume of 500 μl) for 75 min at room temperature (RT). At the end of the incubation, membranes were filtered onto unitfilter (96-well white microplate with bonded GF/C filter preincubated 1 h in 0.3% PEI+0.3% BSA, Packard BioScience, Meriden, Conn.) with a Filtermate 196 harvester (Packard BioScience) and washed 4 times with ice-cold 50 mM Tris-HCl, pH 7.4 buffer. Nonspecific binding was measured in the presence of 10 μM SB222200 for both radioligands. The radioactivity on the filter was counted (5 min) on a Packard Top-count microplate scintillation counter with quenching correction after addition of 45 μl of microscint 40 (Canberra Packard S. A., Zurich, Switzerland) and shaking for 1 h. Inhibition curves were fitted according to the Hill equation: y=100/(1+(x/IC50)^nH), where nH=slope factor using Excel-fit 4 software ([…]). IC50 values were derived from the inhibition curve and the affinity constant (IQ values were calculated using the Cheng-Prussoff equation Ki=IC50/(1+[L]/KD) where [L] is the concentration of radioligand and KD is its dissociation constant at the receptor, derived from the saturation isotherm. All experiments were performed in duplicate and the mean±standard error (SEM) of the individual Ki values was calculated.

Setting [1] is: [3H]SR142801, membranes of HEK293 cells transiently expressing recombinant human NK3 receptor, read-out: hNK3 Ki.
The mark [2] stands for this setting: representative compounds, [3H]SR142801, HEK293 membranes, human NK3 receptor, read-out: Ki NK3 h.

With `CC(=O)N(C)C1CCN(CCC(C)(C(=O)NC(CO)c2ccc(F)cc2)c2ccc(Cl)c(Cl)c2)CC1` (single isomer, unassigned; diastereoisomer 1) [Example 138, 4-[4-(Acetyl-methyl-amino)-piperidin-1-yl]-2-(3,4-dichloro-phenyl)-N-[1-(4-fluoro-phenyl)-2-hydroxy-ethyl]-2-methyl-butyramide (diastereoisomer 1)], the pKi – broadly, the Ki on a negative log10 scale, so that one unit is a factor of ten – under setting [1] was 7.53. Same read-out and setting: in the case of `COc1ccc(CN(C)C(=O)C(C)(CCN2CCC(NS(C)(=O)=O)CC2)c2ccc(Cl)c(Cl)c2)cc1F` (stereo not shown) [Example 1, 2-(3,4-Dichloro-phenyl)-N-(3-fluoro-4-methoxy-benzyl)-4-(4-methanesulfonylamino-piperidin-1-yl)-2,N-dimethyl-butyramide] it was 6.73; in that of `CN(Cc1ccc(Cl)cc1)C(=O)C(CCN1CCC(N2CCCC2=O)CC1)c1ccc(F)c(F)c1` (stereo not shown) [Example 116, N-(4-Chloro-benzyl)-2-(3,4-difluoro-phenyl)-N-methyl-4-[4-(2-oxo-pyrrolidin-1-yl)-piperidin-1-yl]-butyramide], 6.70; in that of `CC(NC(=O)C(C)(CCN1CCC(NS(C)(=O)=O)CC1)c1ccc(Cl)c(Cl)c1)c1ccc(Cl)cc1` (stereo not shown) [Example 16, N-[1-(4-Chloro-phenyl)-ethyl]-2-(3,4-dichloro-phenyl)-4-(4-methanesulfonyl-amino-piperidin-1-yl)-2-methyl-butyramide], 6.76.

Take `CC(=O)N(C)C1CCN(CCC(C)(C(=O)N(C)Cc2ccc(F)c(C(F)(F)F)c2)c2ccc(Cl)c(Cl)c2)CC1` (stereo not shown) [Example 104, 4-[4-(Acetyl-methyl-amino)-piperidin-1-yl]-2-(3,4-dichloro-phenyl)-N-(4-fluoro-3-trifluoromethyl-benzyl)-2,N-dimethyl-butyramide]: the pKi is 8.64 under setting [1] and 8.64 under setting [2]. Regarding `CN(Cc1ccc(Cl)c(Cl)c1)C(=O)C(C)(CCN1CCC(NS(C)(=O)=O)CC1)c1ccc(Cl)c(Cl)c1` (stereo not shown) [Example 10, N-(3,4-Dichloro-benzyl)-2-(3,4-dichloro-phenyl)-4-(4-methanesulfonyl-amino-piperidin-1-yl)-2,N-dimethyl-butyramide], the pKi under setting [1] is 7.62. `Cc1ccc(CN(C)C(=O)C(F)(CCN2CCC(NS(C)(=O)=O)CC2)c2ccc(Cl)c(Cl)c2)cc1` (stereo not shown) [Example 67, 2-(3,4-Dichloro-phenyl)-2-fluoro-4-(4-methanesulfonyl-amino-piperidin-1-yl)-N-methyl-N-(4-methyl-benzyl)-butyramide]: under setting [1], the pKi was 6.49. As to `CN(Cc1ccc(Cl)c(Cl)c1)C(=O)C(C)(CCN1CCC(N(C)S(C)(=O)=O)CC1)c1ccc(Cl)c(Cl)c1` (stereo not shown) [Example 48, N-(3,4-Dichloro-benzyl)-2-(3,4-dichloro-phenyl)-4-[4-(methanesulfonyl-methyl-amino)-piperidin-1-yl]-2,N-dimethyl-butyramide], the pKi under setting [1] is 8.44 and the pKi under setting [2] was 8.44.

With `CN(Cc1ccc(Cl)c(Cl)c1)C(=O)C(F)(CCN1CCC(N(C)S(C)(=O)=O)CC1)c1ccc(Cl)c(Cl)c1` (stereo not shown) [Example 56, N-(3,4-Dichloro-benzyl)-2-(3,4-dichloro-phenyl)-2-fluoro-4-[4-(methanesulfonyl-methyl-amino)-piperidin-1-yl]-N-methyl-butyramide], the pKi under setting [1] is 7.64.

Take `CN(Cc1ccc(F)c(C(F)(F)F)c1)C(=O)C(C)(CCN1CCC(N(C2CC2)S(C)(=O)=O)CC1)c1ccc(Cl)c(Cl)c1` (stereo not shown) [Example 59, 4-[4-(Cyclopropyl-methanesulfonyl-amino)-piperidin-1-yl]-2-(3,4-dichloro-phenyl)-N-(4-fluoro-3-trifluoromethyl-benzyl)-2,N-dimethyl-butyramide]: the pKi under setting [1] is 8.37 and the pKi under setting [2] is 8.37.

On to `CN(Cc1ccc(Cl)cc1)C(=O)C(CCN1CCC(N2CCCC2=O)CC1)c1ccc(Cl)nc1` (stereo not shown) [Example 117, N-(4-Chloro-benzyl)-2-(6-chloro-pyridin-3-yl)-N-methyl-4-[4-(2-oxo-pyrrolidin-1-yl)-piperidin-1-yl]-butyramide], for which, under setting [1], the pKi was 6.41. Regarding `CN(C1CCN(CCC(C)(C(=O)N[C@@H](CO)c2ccc(Cl)c(Cl)c2)c2ccc(Cl)c(Cl)c2)CC1)S(C)(=O)=O` (single isomer, unassigned; diastereoisomer 1) [Example 49, 2-(3,4-Dichloro-phenyl)-N-[1-(3,4-dichloro-phenyl)-2-hydroxy-ethyl]-4-[4-(methanesulfonyl-methyl-amino)-piperidin-1-yl]-2-methyl-butyramide; diastereoisomer 1], the pKi is 8.26 under setting [1] and 8.26 under setting [2]. Take `CN(Cc1ccc(F)c(C(F)(F)F)c1)C(=O)C(C)(CCN1CCC(N(C)S(C)(=O)=O)CC1)c1ccc(Cl)c(Cl)c1` (stereo not shown) [Example 47, 2-(3,4-Dichloro-phenyl)-N-(4-fluoro-3-trifluoromethyl-benzyl)-4-[4-(methanesulfonyl-methyl-amino)-piperidin-1-yl]-2,N-dimethyl-butyramide]: the pKi by setting is: under setting [1], 8.68; under setting [2], 8.68.

As for `CC(CCN1CCC(N2CCCC2=O)CC1)(C(=O)NC(c1ccc(C(F)(F)F)cc1)C(F)(F)F)c1ccc(Cl)c(Cl)c1` (stereo not shown) [Example 97, 2-(3,4-Dichloro-phenyl)-2-methyl-4-[4-(2-oxo-pyrrolidin-1-yl)-piperidin-1-yl]-N-[2,2,2-trifluoro-1-(4-trifluoromethyl-phenyl)-ethyl]-butyramide], under setting [1], the pKi is 8.09. Still for that read-out and setting: in the case of `CN(Cc1ccc(F)c(C(F)(F)F)c1)C(=O)C(C)(CCN1CCC(N2CCCC2=O)CC1)c1ccc(Cl)c(Cl)c1` (single isomer, unassigned) [Example 118, (S or R)-2-(3,4-Dichloro-phenyl)-N-(4-fluoro-3-trifluoromethyl-benzyl)-2,N-dimethyl-4-[4-(2-oxo-pyrrolidin-1-yl)-piperidin-1-yl]-butyramide; hydrochloride] it was 6.77.

Consider `CN(C1CCN(CCC(C)(C(=O)NCc2ccccc2)c2ccc(Cl)c(Cl)c2)CC1)S(C)(=O)=O` (stereo not shown) [Example 52, N-Benzyl-2-(3,4-dichloro-phenyl)-4-[4-(methanesulfonyl-methyl-amino)-piperidin-1-yl]-2-methyl-butyramide], for which the pKi under setting [1] is 7.19. Regarding `CC(CCN1CCC(N2CCCC2=O)CC1)(C(=O)NC(c1ccc(F)cc1)C(F)(F)F)c1ccc(Cl)c(Cl)c1` (stereo not shown) [Example 96, 2-(3,4-Dichloro-phenyl)-2-methyl-4-[4-(2-oxo-pyrrolidin-1-yl)-piperidin-1-yl]-N-[2,2,2-trifluoro-1-(4-fluoro-phenyl)-ethyl]-butyramide], the pKi is 8.14 under setting [1] and 8.14 under setting [2]. In the case of `CN(C1CCN(CCC(C)(C(=O)NC(c2ccccc2)C(F)(F)F)c2ccc(Cl)c(Cl)c2)CC1)S(C)(=O)=O` (stereo not shown) [Example 51, 2-(3,4-Dichloro-phenyl)-4-[4-(methanesulfonyl-methyl-amino)-piperidin-1-yl]-2-methyl-N-(2,2,2-trifluoro-1-phenyl-ethyl)-butyramide], under setting [1], the pKi is 7.73.

Regarding `CC(CCN1CCC(N2CCCC2=O)CC1)(C(=O)N[C@H](CO)c1ccc(Cl)c(Cl)c1)c1ccc(Cl)c(Cl)c1` (single isomer, unassigned; diastereoisomer 2) [Example 98, 2-(3,4-Dichloro-phenyl)-N-[1-(3,4-dichloro-phenyl)-2-hydroxy-ethyl]-2-methyl-4-[4-(2-oxo-pyrrolidin-1-yl)-piperidin-1-yl]-butyramide; diastereoisomer 2], the pKi under setting [1] is 7.30.
